Source: patent US20260091147A1, “METHOD FOR DETECTING INNATE IMMUNE ACTION IN VIVO USING GPR84-PET” (The Board of Trustees of the Leland Standford Junior …, priority 2023, published 2026)
Several values for one entry are separate records, joined by “and”; a condition that tells them apart may be missing. Equal entries are not always repeated.

Legend:
[1] = Dynamic 60 min PET/CT of healthy mice, whole-brain time activity curve; format: in vivo, mouse
Source text: A transmission scan was acquired to correct for attenuation during image reconstruction. Following PET imaging, mice were transferred to a SOFIE GNEXT PET/CT for CT acquisition. PET/CT data were co-registered and analyzed using Inveon Research Workplace software to generate images and quantify radiotracer uptake in regions of interest (ROIs). A 3D ROI was manually defined for the whole brain using CT data as anatomical reference, then applied to the full dynamic data set to generate a time activity curve (TAC).
The count densities were averaged for all volumes of interest at each time point to obtain a time-activity curve (TAC). The TACs were normalized to injected dose, as measured by a CRC-15 PET dose calibrator (Capintec Inc.), and expressed as % injected dose per gram (% ID/g), assuming 1 g/mL. CT was performed in GNEXT depth of interaction (DOI) dual-layer detector system. Scintica VivoQuant software was used to visualize radiotracer uptake and define the 3D volumes of interest. 3D maximum intensity projection (MIP) PET/CT images were created using IRW software.
On days 15-16 after EAE induction, mice were catheterized and placed on the 4-mouse scanning bed of the Sofie GNEXT PET/CT scanner.

[2] = system: human monocyte-derived macrophages (hMDMs); test: hMDM radioactive cell binding assay, with or without LPS; format: cell-based; settings: LPS 100 ng/mL; for tracer signal in LPS-challenged hMDMs after co-incubation with GLPG1205: GLPG1205 block
Method: CD14^+ monocytes isolated from PBMCs from human peripheral blood were plated 10×10^6 cells per 10 cm petri dish in 8-10 mL complete growth medium (for quantitative PCR) or 10^6-10^5 cells per well in 1 mL complete growth medium into one 12-well plate per blood donor (radioactive cell binding) and incubated 7-10 days at 5% CO2 in air at 37° C. These cells were then treated with 100 ng/mL LPS in complete growth medium 24 hr or 72 hr prior to experimentation according to previous working concentrations in the literature.
Human monocyte-derived macrophages (hMDMs) were plated at a concentration of 10^6-10^5 cells per well in media (RPMI 1640+glutamax with 10% FBS, 1% anti-anti, and 50 ng/mL M-CSF) into one 12-well plate per blood donor. Once cells adhered to the plate (˜24 hr), 100 ng/mL lipopolysaccharides (LPS) was applied to two of the three rows of the plate. 24 hr later, the [^11C]GLPG38, [^11C]MGX-10S, or [^18F]MGX-110S radiotracer was prepared. The radiotracer was diluted in RPMI 1640 without FBS or antibiotic to yield a 30 mL solution such that the amount of activity was 50 μCi/mL for ^11C or 2 μCi/mL for ^18F. Additionally, a blocking solution was prepared consisting of 35 μM GLPG1205 dissolved in DMSO and added to RPMI 1640 media+tracer solution. The 12-well plates were incubated for 30 min at […] and 5% CO2 in air. Following incubation, the radioactive media was removed and replaced with 500 μL fresh media, and a 10 min efflux was conducted. After efflux, the media was collected into a gamma counting tube to measure supernatant, and the cells were washed with PBS, trypsinized, resuspended in RPMI 1640+glutamax+10% FBS, then pipetted into gamma counting tubes at 500 μL volume.
Radioactivity levels bound to cells were measured in a gamma counter (Hidex Oy, Helsinki, Finland), and cell counts were recorded using Trypan blue and an automatic cell counter to normalize radioactivity levels to cell count.

GPR84 = GPR84 (Homo sapiens, UniProt Q9NQS5); test: Radiotracer cell binding, hGPR84-HEK-293 vs control HEK-293 cells, with or without GLPG1205 block; format: cell-based; set-up: host or cells: HEK-293 cells, lentivirally transduced, puromycin-selected monoclonal line; settings: for fold higher binding to hGPR84-HEK-293 cells vs control cells: 40 min incubation; for reduction of tracer binding in hGPR84-HEK293 cells by GLPG1205: co-incubation with GLPG1205 35 μM (1000× by mass), 40 min
Method: GPR84-transduced HEK-293 cells and control HEK-293 cells were plated at a concentration of 3×10^5 cells per well in media (DMEM with 10% FBS and 1% anti-anti) into three 12-well plates 16-24 hr prior to the cell binding assay. Once cells reached ˜90% confluency, the radiotracer was prepared. […] The radiotracer was diluted in DMEM without FBS or antibiotic to yield a 30 mL solution where the amount of activity was 25 μCi in 500 μL. The first 12-well plate was incubated for 20 minutes at 37° C. and 5% CO2 in air while the next was incubated for 40 minutes at the same conditions. Cells were subsequently washed with PBS, trypsinized, resuspended in DMEM+10% FBS, and pipetted into gamma counting tubes at 500 μL volume. Radioactivity levels bound to cells were measured in a gamma counter (Hidex Oy, Helsinki, Finland), and cell counts were recorded using Trypan blue and an automatic cell counter to normalize radioactivity levels to cell count.
At the indicated time points, plates were placed on ice, washed three times with ice-cold phosphate-buffered saline (PBS), and trypsinized (150 μL per well) for 2 min at 37° C. The trypsin was neutralized by adding 600 μL DMEM containing 10% FBS (original cell culture media) to each well. […] Gamma counting was performed to quantitate percentage radiotracer uptake by the cells and decay-corrected radioactivity was determined (Hidex automated gamma counter). Finally, cells in each gamma counting tube were counted by using the Countess cell counter (Life Technologies). Cell binding was expressed in terms of % uptake/million cells.
GPR84-transduced HEK-293 cells and control HEK-293 cells from Creative Biogene were plated at a concentration of 3×10^5 cells per well in media (DMEM with 10% FBS and 1% anti-anti) into a 12-well plate for 16-24 hr. HEK-293 cells were stably transduced via the following process from Creative Biogene: construction of pLVX-CMV-Human-GPR84-PGK-Puro lentiviral expression plasmid, lentivirus production, lentivirus transduction, puromycin selection of polyclonal stable HEK293-Human-GPR84 cells, screening of monoclonal stable HEK293-Human-GPR84 cells via limited dilution, validation using qPCR, then mycoplasma detection by PCR and Lonza kit. Once cells reached ˜90% confluency, the radiotracer was prepared. The radiotracer was diluted in DMEM without FBS or antibiotic to yield a 30 mL solution such that the amount of activity was 50 μCi/mL for ^11C or 2 μCi/mL for ^18F. […] The 12-well plate was incubated for 40 min at 37° C. and 5% CO2 in air. […] Radioactivity levels bound to cells were measured in a gamma counter (Hidex Oy, Helsinki, Finland), and cell counts were recorded using Trypan blue and an automatic cell counter to normalize radioactivity levels to cell count.

GPR84, sequence (Q9NQS5 whole entry): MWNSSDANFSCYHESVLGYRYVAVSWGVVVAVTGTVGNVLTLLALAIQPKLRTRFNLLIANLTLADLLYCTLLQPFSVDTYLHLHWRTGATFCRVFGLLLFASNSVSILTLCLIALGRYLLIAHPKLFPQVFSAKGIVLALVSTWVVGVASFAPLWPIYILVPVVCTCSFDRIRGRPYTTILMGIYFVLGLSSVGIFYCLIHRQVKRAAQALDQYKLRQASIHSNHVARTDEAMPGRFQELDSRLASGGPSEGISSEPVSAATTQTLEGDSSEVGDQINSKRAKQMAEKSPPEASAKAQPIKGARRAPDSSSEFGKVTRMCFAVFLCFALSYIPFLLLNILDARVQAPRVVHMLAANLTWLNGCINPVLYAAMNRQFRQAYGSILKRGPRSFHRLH

Cc1cc2c(cc1O[11CH3])CCn1c-2c(C)c(OC[C@@H]2COCCO2)cc1=O [[^11C]GLPG38]
whole-brain uptake after washout, end of 60 min scan ([1]; healthy mice): 3.53 % ID/g | whole-brain uptake at 4 minutes post injection ([1]; naive wild-type mice): 9.46 % ID/g | tracer binding in LPS-challenged hMDMs compared to unstimulated cells [2]: significantly higher binding | tracer signal in LPS-challenged hMDMs after co-incubation with GLPG1205 [2]: reduced to baseline | fold higher binding to hGPR84-HEK-293 cells vs control cells (GPR84): 13.5 fold | reduction of tracer binding in hGPR84-HEK293 cells by GLPG1205 (GPR84): 90% and > 90%

O=c1nc(OC[C@@H]2COCCO2)cc2n1CCc1cc([18F])ccc1-2 [^18F-MGX-110S]
time of peak brain uptake ([1]; naive mice, n=3): 0.25 min | tracer binding in LPS-challenged hMDMs compared to unstimulated cells [2]: significantly higher binding | tracer signal in LPS-challenged hMDMs after co-incubation with GLPG1205 [2]: reduced to baseline | fold higher binding to hGPR84-HEK-293 cells vs control cells (GPR84): 33.4 fold and 25 fold | reduction of tracer binding in hGPR84-HEK293 cells by GLPG1205 (GPR84): > 90%
